Like-named read-outs stand apart in the source and are kept apart here. Values belong to the molecule of their own block, whether it stands above or below them.
Molecular target: Human Factor D (Homo sapiens (Human), UniProt P00746)
Assay: Human Factor D Assay
Assay type: biochemical
Experimental: Human Factor D (purified from human serum, Complement Technology, Inc.) at 80 nM final concentration was incubated with test compound at various concentrations for 5 minutes at room temperature in 50 mM Tris, 1M NaCl, pH 7.5. A synthetic substrate Z-L-Lys-SBzl and DTNB (Ellman's reagent) are added to final concentrations of 100 μM each. […] IC50 values are calculated by nonlinear regression of complement Factor D reaction rates as a function of test compound concentration.

[1] = Human Factor D 80 nM, substrate Z-L-Lys-SBzl, star classes, read-out: IC50
[2] = Human Factor D 80 nM, substrate Z-L-Lys-SBzl, Table 3, read-out: IC5 (Stars)

Human Factor D, sequence (P00746 26-253): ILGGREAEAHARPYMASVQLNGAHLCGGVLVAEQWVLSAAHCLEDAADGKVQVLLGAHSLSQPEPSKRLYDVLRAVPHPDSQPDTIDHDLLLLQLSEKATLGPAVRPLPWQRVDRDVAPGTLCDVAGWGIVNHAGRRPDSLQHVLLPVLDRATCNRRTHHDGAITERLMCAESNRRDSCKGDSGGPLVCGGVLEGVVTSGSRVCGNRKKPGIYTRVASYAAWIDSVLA

SMILES: CC(=O)c1cn(CC(=O)N2C[C@H](F)C[C@H]2C(=O)NCc2ccncc2)c2ccc(-c3ccnnc3)cc12 [Compound 40, (2S,4R)-1-(2-(3-acetyl-5-(pyridazin-4-yl)-1H-indol-1-yl)acetyl)-4-fluoro-N-(pyridin-4-ylmethyl)pyrrolidine-2-carboxamide]
IC50: 1000 to 10000 nM

SMILES: CC(=O)c1nn(CC(=O)N2C[C@H](F)C[C@H]2C(=O)Nc2cccc(Br)n2)c2ccc(-c3cnc(S(C)(=N)=O)nc3)cc12 (stereo partly drawn) [Compound 732, (2S,4R)-1-(2-(3-Acetyl-5-(2-(S-methylsulfonimidoyl)pyrimidin-5-yl)-1H-indazol-1-yl)acetyl)-N-(6-bromopyridin-2-yl)-4-fluoropyrrolidine-2-carboxamide]
IC50 [1]: < 1000 nM

SMILES: CC(=O)c1nn(CC(=O)N2C[C@H](F)C[C@H]2C(=O)Nc2cccc(Br)n2)c2ccc(-c3nc4c(s3)CCCC4)cc12 [Compound 297]
IC50 (Human Factor D, assay of Example 8, read-out: IC50): < 1000 nM

SMILES: Cc1cccc(NC(=O)[C@@H]2[C@H]3CC[C@H](C3)N2C(=O)Cn2cc(C(N)=O)c3cc(-c4ccc(F)nc4)ccc32)n1 [Compound 500, 5-(6-Fluoropyridin-3-yl)-1-(2-((1R,3S,4S)-3-(6-methylpyridin-2-ylcarbamoyl)-2-azabicyclo[2.2.1]heptan-2-yl)-2-oxoethyl)-1H-indole-3-carboxamide]
IC50 [2]: > 10000 nM

SMILES: NC(=O)c1nn(CC(=O)N2CCC[C@]2(F)C(=O)Nc2cccnc2)c2ccc(-c3ccnnc3)cc12 [Compound 47, 1-(2-((2S,4R)-2-fluoro-2-(pyridin-3-ylcarbamoyl)pyrroli-din-1-yl)-2-oxoethyl)-5-(pyridazin-4-yl)-1H-indazole-3-carboxamide]
IC50 (Human Factor D 80 nM, substrate Z-L-Lys-SBzl, read-out: IC50): > 10000 nM

IC50 [2]: < 1000 nM
SMILES: Cc1ncc(-c2ccc3c(c2)c([C@H](C)O)nn3CC(=O)N2[C@@H]3C[C@@H]3C[C@H]2C(=O)Nc2cccc(Br)n2)cn1 [Compound 409, (1R,3S,5R)—N-(6-Bromopyridin-2-yl)-2-(2-(3-((S)-1-hydroxyethyl)-5-(2-methylpyrimidin-5-yl)-1H-indazol-1-yl)acetyl)-2-azabicyclo[3.1.0]hexane-3-carboxamide]

SMILES: CC(=O)c1nn(CC(=O)N2C[C@@H](C)C[C@H]2C(=O)Nc2nc(Br)ccc2C)c2ccc(-c3cnc(C)nc3)cc12 [Compound 643, (2S,4S)-1-(2-(3-Acetyl-5-(2-methylpyrimidin-5-yl)-1H-indazol-1-yl)acetyl)-N-(6-bromo-3-methylpyridin-2-yl)-4-methylpyrrolidine-2-carboxamide]
IC50 [1]: < 1000 nM

SMILES: Cc1cccc(NC(=O)[C@@H]2[C@H]3CC[C@H](C3)N2C(=O)Cn2cc(C(N)=O)c3cc(-c4n[nH]c5ccsc45)ccc32)n1 [Compound 704, 1-(2-((1R,3S,4S)-3-(6-Methylpyridin-2-ylcarbamoyl)-2-azabicyclo[2.2.1]heptan-2-yl)-2-oxoethyl)-5-(1H-thieno[3,2-c]pyrazol-3-yl)-1H-indole-3-carboxamide]
IC50 [1]: > 10000 nM

SMILES: CC(=O)c1nn(CC(=O)N2C[C@H](F)C[C@@H]2C(=O)Nc2nc(Br)ccc2C(=O)O)c2ccc(-c3cnc(C)nc3)cc12 [Compound 648, 2-((2R,4R)-1-(2-(3-Acetyl-5-(2-methylpyrimidin-5-yl)-1H-indazol-1-yl)acetyl)-4-fluoropyrrolidine-2-carboxamido)-6-bromonicotinic acid]
IC50: 1000 to 10000 nM

SMILES: CC(=O)c1nn(CC(=O)N2[C@H]3CC[C@H](CC3)[C@H]2C(=O)Nc2cccc(Br)n2)c2ccc(-c3cnc(C)nc3)cc12 [Compound 734, (1R,3S,4R)-2-(2-(3-Acetyl-5-(2-methylpyrimidin-5-yl)-1H-indazol-1-yl)acetyl)-N-(6-bromopyridin-2-yl)-2-azabicyclo[2.2.2]octane-3-carboxamide]
IC50 [1]: < 1000 nM

SMILES: COc1ccc(N2C[C@@H]3CC[C@H]2C=C3c2ccc3c(c2)c(C(C)=O)nn3CC(=O)N2C[C@H](F)C[C@H]2C(=O)Nc2cccc(Br)n2)cc1 [Compound 721, (2S,4R)-1-(2-(3-Acetyl-5-((1S,4R)-2-(4-methoxyphenyl)-2-azabicyclo[2.2.2]oct-5-en-5-yl)-1H-indazol-1-yl)acetyl)-N-(6-bromopyridin-2-yl)-4-fluoropyrrolidine-2-carboxamide]
IC50 [1]: < 1000 nM

SMILES: CC(=O)c1nn(CC(=O)N2C[C@H](F)C[C@H]2C(=O)NC2CCN(C(=O)c3cn[nH]c3)CC2)c2ccc(-c3cnc(C)nc3)cc12 [Compound 261, (2S,4R)-N-(1-(1H-pyrazole-4-carbonyl)piperidin-4-yl)-1-(2-(3-acetyl-5-(2-methylpyrimidin-5-yl)-1H-indazol-1-yl)acetyl)-4-fluoropyrrolidine-2-carboxamide]
IC50 (read-out: IC50): < 1000 nM

IC50 [2]: > 10000 nM
SMILES: Cc1cccc(C[C@H](O)[C@@H]2C[C@@H](F)CN2C(=O)Cn2cc(C(N)=O)c3cc(-c4cnc(C)nc4)ccc32)n1 [Compound 455, 1-(2-((2S,4R)-4-fluoro-2-((S)-1-hydroxy-2-(6-methylpyridin-2-yl)ethyl)pyrrolidin-1-yl)-2-oxoethyl)-5-(2-methylpyrimidin-5-yl)-1H-indole-3-carboxamide]
